The record followed here is patent publication US20250011289A1, “1H-BENZO[B]AZEPIN-2(3H)-ONE COMPOUNDS, COMPOSITIONS AND METHODS OF TREATING CANCER” (Chengdu Anticancer Bioscience, Ltd., priority 2021, published 2025).

The test system of experiment [1] is RPE-Neo or RPE-MYC or RPE-MYC expressing an EGFP-Histone 2B fusion protein. Briefly: Phenotypic screening assay (arrest in mitosis or change in DNA content, IN-Cell Analyzer). Format: cell-based. As to conditions: compounds at 20 nM to 20 μM, analysed 24, 48 or 72 hours after initiation of treatment. As for the experimental part:
(§1) Screening was conducted as described before (Li et al. 2019). Briefly, RPE-Neo or RPE-MYC or RPE-MYC expressing an EGFP-Histone 2B fusion protein were passaged as batches of 96-well plates, 18-24 hours before exposure to the chemical compounds of the present disclosure at concentrations from 20 nM to 20 μM. At 24, 48 or 72 hours after initiation of treatment, cells were analyzed for either an arrest in mitosis or a change in DNA content by GE 1N-Cell Analyzer 2000. MTT assays of cellular proliferation were performed as previously described (Li et al. 2019).
(§2) As set forth in table 2 below, an values of greater than or equal to 1 nM and less than or equal to 1.0 μM is marked “A”; a value greater than 1.00 μM and less than or equal to 10.0 μM is marked “B”; a value greater than 10.0 μM and less than or equal to 30.0 μM is marked “C”; and a value greater than 30.0 μM and less than 1000 μM is marked “D.”

For experiment [2], the system named is RPE-Neo or RPE-MYC cells. Briefly: MTT assay of cellular proliferation. It is filed as cell-based. Conditions: compounds at 20 nM to 20 μM; read-out: Min. Effective conc. for Proliferative arrest (>50%). As for the experimental part: Human cancer cell lines were obtained from ATCC and cultured in DMEM (Gibco, Cleveland. TN, USA) supplemented with 5% fetal bovine serum (Gibco), penicillin (100 U/mL)-streptomycin (100 μg/mL) (Gibco, Cat. No. 15140-122), 2 mM L-glutamine (Gibco, 200 mM solution, Cat. No. 25030081), and 1 mM sodium pyruvate (Gibco, 100 mM solution, Cat. No. 11360070) at 37° C. in a humidified incubator that was maintained at 5% CO2.
as §1, §2
For orientation: Formazan colour is commonly taken as a measure of viable cells.

Setting [3] is: read-out: Min. Effective conc. for Along with Cell Death.
Where [4] appears, read: read-out: Min. Effective conc. for Mitotic Arrest (>5%).
Setting [5] is: read-out: Min. Effective conc. for Polyploidy (≥5%).

Where two headings read alike, the source gives them in different places.

With `Cc1ccc(CN2C(=O)CC(c3nnc(C4CC4)o3)=C(Br)c3ccc(OCCCN4CCOCC4)cc32)cc1F` [Compound 20-23, 5-bromo-4-(5-cyclopropyl-1,3,4-oxadiazol-2-yl)-1-(3-fluoro-4-methylbenzyl)-8-(3-morpholinopropoxy)-1,3-dihydro-2H-benzo[b]azepin-2-one], the minimal effective concentration in experiment [1] (setting [3]), in experiment [1] (setting [4]), in experiment [1] (setting [5]) and in experiment [2] was 0.001 to 1 µM in each case.

Take `COc1ccc(CN2C(=O)CC(c3nnc(C4CC4)o3)=C(Br)c3ccccc32)cc1F` [Compound 20-25, 5-bromo-4-(5-cyclopropyl-1,3,4-oxadiazol-2-yl)-1-(3-fluoro-4-methoxybenzyl)-1,3-dihydro-2H-benzo[b]azepin-2-one]: the minimal effective concentration in experiment [1] (setting [3]), in experiment [1] (setting [4]), in experiment [1] (setting [5]) and in experiment [2] was 0.001 to 1 µM throughout.

As to `[2H]C(c1ccc(C)c(F)c1)N1C(=O)CC(c2nnc(C3CC3)o2)=C(Br)c2ccccc21` (stereo not drawn) [Compound 20-26, 5-bromo-4-(5-cyclopropyl-1,3,4-oxadiazol-2-yl)-1-((3-fluoro-4-methylphenyl)methyl-d)-1,3-dihydro-2H-benzo[b]azepin-2-one], the minimal effective concentration in experiment [1] (setting [3]), in experiment [1] (setting [4]), in experiment [1] (setting [5]) and in experiment [2] was 0.001 to 1 µM throughout.

Regarding `[2H]C([2H])(c1ccc(C)c(F)c1)N1C(=O)CC(c2nnc(C3CC3)o2)=C(Br)c2ccccc21` [Compound 20-27, 5-bromo-4-(5-cyclopropyl-1,3,4-oxadiazol-2-yl)-1-((3-fluoro-4 methylphenyl)methyl-d2)-1,3-dihydro-2H-benzo[b]azepin-2-one], the minimal effective concentration in experiment [1] (setting [3]), in experiment [1] (setting [4]), in experiment [1] (setting [5]) and in experiment [2] was 0.001 to 1 µM in each case.

On to `Cc1cc(F)c(CN2C(=O)CC(c3nnc(C4CC4)o3)=C(Br)c3ccccc32)cc1F` [Compound 20-28, 5-bromo-4-(5-cyclopropyl-1,3,4-oxadiazol-2-yl)-1-(2,5-difluoro-4-methylbenzyl)-1,3-dihydro-2H-benzo[b]azepin-2-one], for which the minimal effective concentration in experiment [1] (setting [3]), in experiment [1] (setting [4]), in experiment [1] (setting [5]) and in experiment [2] was 0.001 to 1 µM each time.

With `Cc1ccc(CN2C(=O)CC(c3nnc(C4CC4)o3)=C(C3CC3)c3ccccc32)cc1F` [Compound 20-29], the minimal effective concentration in experiment [1] (setting [3]), in experiment [1] (setting [4]), in experiment [1] (setting [5]) and in experiment [2] was 1 to 10 µM throughout.

For `CC1=C(c2nnc(C3CC3)o2)CC(=O)N(Cc2ccc(C)c(F)c2)c2ccccc21` [Compound 20-30], the minimal effective concentration in experiment [1] (setting [3]), in experiment [1] (setting [4]), in experiment [1] (setting [5]) and in experiment [2] was 0.001 to 1 µM throughout.

Turning to `C#CC1=C(c2nnc(C3CC3)o2)CC(=O)N(Cc2ccc(C)c(F)c2)c2ccccc21` [Compound 20-32, 4-(5-cyclopropyl-1,3,4-oxadiazol-2-yl)-5-ethynyl-1-(3-fluoro-4-methylbenzyl)-1,3-dihydro-2H-benzo[b]azepin-2-one], the minimal effective concentration in experiment [1] (setting [3]), in experiment [1] (setting [4]), in experiment [1] (setting [5]) and in experiment [2] was 0.001 to 1 µM throughout.

`Cc1ccc(CN2C(=O)CC(c3nc[nH]n3)=C(Br)c3ccccc32)cc1F` [Compound 22-1, 5-bromo-1-(3-fluoro-4-methylbenzyl)-4-(1H-1,2,4-triazol-3-yl)-1,3-dihydro-2H-benzo[b]azepin-2-one]: the minimal effective concentration in experiment [1] (setting [3]), in experiment [1] (setting [4]), in experiment [1] (setting [5]) and in experiment [2] was 1 to 10 µM in each case.
